Measured values published in patent US20160031868A1, “BENZIMIDAZOLONE DERIVATIVES AS BROMODOMAIN INHIBITORS” (GILEAD SCIENCES, INC., priority 2013, published 2016).

Key:
[1] = MT-4 proliferation assay in 384-well format (Cell Titer Glo); type: cell-based, human; details: human, MT-4 cells, Table 2, 50% decrease in luminescence signal, read-out: CC50 MT4 384
Protocol: Compounds were tested in a standardized high-throughput 384-well assay format. Each compound was serially diluted 3-fold in 100% DMSO in polypropylene 384-well plates using a Biomek FX Workstation, and 0.4 μL compound added to an assay plate containing 40 μL RPMI media. Compounds were arranged in a horizontal pattern, with 10 concentrations per compound, and 8 compounds added per plate. Due to low DMSO tolerability, the final DMSO concentration never exceeded 0.5% (v/v). Each assay plate contained 10 μM Puromycin and 0.5% DMSO in RPMI-1640 as positive and negative controls respectively. MT-4 cells (HTLV-1 transformed, human T lymphoblastoid cells, NIH Aids Reagent program) were added in volumes of 35 μL per well and 2,000 cells per well using a Biotek uFlow Workstation (Biotek, Winooski, Vt.), and the plates subsequently incubated for 5 days at 37° C. in an incubator set at 5% CO2 and 90% humidity.
After 5 days, 22 μL Cell Titer Glo (Promega) was added to the assay plates with a Biotek uFlow Workstation. Plates were subsequently placed on a Perkin Elmer Envision Plate Reader for 5 minutes before the luminescence signal was read. CC50 values were calculated from the compound concentration that caused a 50% decrease in luminescence signal, a measure of toxicity, and calculated by non-linear regression using Pipeline Pilot software (Accelrys, San Diego, Calif.).

[2] = target: T1, BRD4-1 (Homo sapiens, UniProt O60885); assay: BRD4-1 Ligand KI assay (TR-FRET displacement of Cy5 labeled probe); type: binding; details: 10 nM labeled ligand, 2 nM BRD4-1; Ki from IC50 by Cheng and Prusoff; read-out: BRD4-1 Ligand K1
T1 construct: made in house; host or cells: Escherichia coli
Protocol: Binding of the two tandem bromodomains, BRD4-I and BRD4-2, to a Cy5 labeled probe/ligand (Compound 201-A) were measured using a homogeneous time resolved fluorescence resonance energy transfer (TR-FRET) assay.
(§1) The labeled ligand specifically binds BRD4-1 and BRD4-2 and can be displaced by a small molecule inhibitor that shares a similar or overlapping binding site. BRD4-I and BRD4-2 were expressed and purified from Escherichia coli as N-terminal His6-tagged proteins. A Eu-cryptate labeled anti-His antibody (Perkin Elmer) was used to specifically bind BRD4. […] Assays were performed in 50 mM Hepes (pH 7.5), 150 mM NaCl, 0.1 mg/ml BSA, 0.01% (v/v) Brij, 0.5% (v/v) DMSO and 10 nM labeled ligand at the following concentrations for each BRD4 isoform: 2 nM BRD4-1 and 0.5 nM BRD4-2. After an assay reaction time of 60 minutes at 25° C., binding was measured with 2 nM Eu-cryptate labeled anti-His antibody. TR-FRET signal was detected on an Envision plate reader (Ex: 320 nm; Em: 615/665 nm; 100 μs delay and 200 μs read window). Data were normalized based on a positive (2 μM I-BET) and negative (DMSO) controls and IC50 values were calculated from the fit of the dose-response curves to a four-parameter equation. All IC50 values represent geometric mean values of a minimum of four determinations. The IC50 values were converted to Ki values (dissociation constant for BRD4-inhibitor complex) using the Cheng and Prusoff equation for a competitive inhibitor mode of action. These assays generally produced results within 3-fold of the reported mean.

[3] = target: T2, BRD4-2 (Homo sapiens, UniProt O60885); assay: BRD4-2 Ligand KI assay (TR-FRET displacement of Cy5 labeled probe); type: binding; details: 10 nM labeled ligand, 0.5 nM BRD4-2; Ki from IC50 by Cheng and Prusoff; read-out: BRD4-2 Ligand K2
T2 construct: made in house; host or cells: Escherichia coli
Protocol: as §1, with “BRD4-I” for “The labeled ligand specifically binds BRD4-1 and BRD4-2 and can be displaced by a small molecule inhibitor that shares a similar or overlapping binding site. BRD4-I”, “action.” for “action. These assays generally produced results within 3-fold of the reported mean.”

[4] = system: c-Myc produced in MM1S cells; assay: c-Myc down regulation assay (MSD ELISA) in MM1S cells; type: cell-based; details: Homo sapiens, MM1.S, 24 hrs incubation, geometric mean, read-out: cMYC EC50
Protocol: An enzyme linked immunosorbent assay using the Meso Scale Diagnostic (MSD) technology was used to detect levels of c-Myc produced in MM1S cells (ATCC). MM1S cells were cultured in RPMI-1640 media (Corning), supplemented with 10% FBS (Hyclone), 1% penicillin-streptomycin (Cellgro), 2-mercaptoethanol (Gibco) and seeded onto 384-tissue culture treated filter binding plates (Millipore) at a density of 40K cells/well containing titrations of small molecule inhibitors or DMSO (0.4%) in a volume of 100 μl of media. After an incubation time of 24 hrs, cells were lysed (1× lysis buffer (Thermo) supplemented with protease and phosphatase inhibitor cocktail (Thermo)) and the plates centrifuged (1000 rpm, 1 min) to capture c-Myc on MSD plates coated with a monoclonal c-Myc antibody (Origene). Assay wells were washed (3× Invitrogen wash buffer) and probed with a polyclonal c-Myc antibody (Abcam) and MSD detection antibody solution in order to detect levels of c-Myc on the MSD platform. c-Myc capture was reported in pg/ml based on a standard curve using recombinant c-Myc protein (Prosci). EC50 values were calculated from the fit of the dose-response curves to a four-parameter equation. All EC50 values represent geometric mean values of a minimum of four determinations. These assays generally produced results within 3-fold of the reported mean.

| SMILES | CC50 at 5 days [1] | Ki [2] | Ki [3] | EC50 [4] |
| --- | --- | --- | --- | --- |
| Cc1noc(C)c1-c1cc(-c2c(C3CC3)n[nH]c2C2CC2)c2[nH]c(=O)[nH]c2c1 [Example 23, 4-(3,5-dicyclopropyl-1H-pyrazol-4-yl)-6-(3,5-dimethylisoxazol-4-yl)-1H-benzo[d]imidazol-2(3H)-one] | 9.1 nM | 12.9 nM | 3 nM | 13.2 nM |
| Cc1noc(C)c1-c1cc(C(O)(c2ccccc2)c2ccc3ccc(F)cc3n2)c2[nH]c(=O)[nH]c2c1 (centres unmarked) [Example 33, 6-(3,5-dimethylisoxazol-4-yl)-4-((7-fluoroquinolin-2-yl)(hydroxy)(phenyl)methyl)-1H-benzo[d]imidazol-2(3H)-one] | 29.1 nM | 14.1 nM | 5.3 nM | 176 nM |
| Cc1noc(C)c1-c1cc(C(O)(c2ccccn2)c2ccc3ccc(F)cc3n2)c2[nH]c(=O)[nH]c2c1 (centres unmarked) [Example 36, 6-(3,5-dimethylisoxazol-4-yl)-4-((7-fluoroquinolin-2-yl)(hydroxy)(pyridin-2-yl)methyl)-1H-benzo[d]imidazol-2(3H)-one] | 29.1 nM | 14.1 nM | 5.3 nM | 176 nM |
| Cc1noc(C)c1-c1cc(C(O)(c2ccc(F)cn2)c2c(F)cccc2F)c2[nH]c(=O)[nH]c2c1 (centres unmarked) [Example 38, 4-((2,6-difluorophenyl)(5-fluoropyridin-2-yl)(hydroxy)methyl)-6-(3,5-dimethylisoxazol-4-yl)-1H-benzo[d]imidazol-2(3H)-one] | 29.7 nM | 7.8 nM | 4.4 nM | 84.7 nM |
| Cc1noc(C)c1-c1cc(C(O)(c2ccc(F)cn2)c2ccc(F)cc2F)c2[nH]c(=O)[nH]c2c1 (centres unmarked) [Example 39, 4-((2,4-difluorophenyl)(5-fluoropyridin-2-yl)(hydroxy)methyl)-6-(3,5-dimethylisoxazol-4-yl)-1H-benzo[d]imidazol-2(3H)-one] | 42.1 nM | 11.8 nM | 5.9 nM | 128 nM |
| Cc1noc(C)c1-c1cc(C(O)(c2ccc(F)cn2)c2cc(F)ccc2F)c2[nH]c(=O)[nH]c2c1 (centres unmarked) [Example 41, 4-((2,5-difluorophenyl)(5-fluoropyridin-2-yl)(hydroxy)methyl)-6-(3,5-dimethylisoxazol-4-yl)-1H-benzo[d]imidazol-2(3H)-one] | 47.3 nM | 12.8 nM | 5 nM | 104 nM |
| Cc1noc(C)c1-c1cc(C(O)(c2cnccn2)c2c(F)cccc2F)c2[nH]c(=O)[nH]c2c1 (centres unmarked) [Example 49, 4-((2,6-difluorophenyl)(hydroxy)(pyrazin-2-yl)methyl)-6-(3,5-dimethylisoxazol-4-yl)-1H-benzo[d]imidazol-2(3H)-one] | 9.7 nM | 8.1 nM |  |  |
| Cc1noc(C)c1-c1cc(C(O)(c2cccnn2)c2c(F)cccc2F)c2[nH]c(=O)[nH]c2c1 (centres unmarked) [Example 50, 4-((2,6-difluorophenyl)(hydroxy)(pyridazin-3-yl)methyl)-6-(3,5-dimethylisoxazol-4-yl)-1H-benzo[d]imidazol-2(3H)-one] | 16 nM | 8.7 nM | 5.9 nM |  |
| Cc1noc(C)c1-c1cc(C(O)(c2ccc(F)cn2)c2c(F)cc(F)cc2F)c2[nH]c(=O)[nH]c2c1 (centres unmarked) [Example 52, 6-(3,5-dimethylisoxazol-4-yl)-4-((5-fluoropyridin-2-yl)(hydroxy)(2,4,6-trifluorophenyl)methyl)-1H-benzo[d]imidazol-2(3H)-one] | 36.1 nM | 8.9 nM | 6.4 nM | 135 nM |
| Cc1noc(C)c1-c1cc(C(O)(c2ccccn2)C2CCCCC2)c2[nH]c(=O)[nH]c2c1 (centres unmarked) [Example 144, 4-(cyclohexyl(hydroxy)(pyridin-2-yl)methyl)-6-(3,5-dimethylisoxazol-4-yl)-1H-benzo[d]imidazol-2(3H)-one] |  | 7.7 nM | 2.7 nM |  |
